Measured values published in patent publication US20120269830A1, “CONJUGATES WITH IMPROVED PHARMACOKINETIC PROPERTIES” (priority 2009, published 2012).

Tests used:
[1] = target: Dipeptidyl protease IV (DPP-IV) (Homo sapiens, UniProt P27487); details: cited from earlier work
db/db mice = test: Reduction of fasting blood glucose in db/db mice; assay type: in vivo; details: intravenous; for blood glucose at 4 and 8 hours post treatment: food access after 4 hours
Method: Synthetic GLP-1 peptide and recombinant GLP-1 Surrobody fusions were evaluated for their ability to lower plasma glucose in db/db mice. To reduce the effects of in vivo DPPIV proteolysis during the time course of the study GLP-1 both synthetic and recombinant GLP-1 functionally null Surrobodies used a GLP-1 variant containing a serine substitution for alanine at position 8 that reduces DPPIV inactivation. 8 db/db mice were used per group: Control SgG (3 mg/kg) (functionally null SgG that lacks the GLP-1 conjugate); GLP-1 peptide (0.8 mg/kg); GLP-1 SgG (1 mg/kg); and GLP-1 (3 mg/kg). Essentially db/db mice were matched by weight and relative blood glucose levels. Next, the subjects were injected intravenously with test article and isolated with access to water, but not food. Glucose levels were monitored by handheld glucometer after 1 hour and 4 hours. After 4 hours the mice were allowed free access to both food and water. An additional reading was made at 8 hours following drug administration.

Chain of Dipeptidyl protease IV (DPP-IV) (P27487 whole entry): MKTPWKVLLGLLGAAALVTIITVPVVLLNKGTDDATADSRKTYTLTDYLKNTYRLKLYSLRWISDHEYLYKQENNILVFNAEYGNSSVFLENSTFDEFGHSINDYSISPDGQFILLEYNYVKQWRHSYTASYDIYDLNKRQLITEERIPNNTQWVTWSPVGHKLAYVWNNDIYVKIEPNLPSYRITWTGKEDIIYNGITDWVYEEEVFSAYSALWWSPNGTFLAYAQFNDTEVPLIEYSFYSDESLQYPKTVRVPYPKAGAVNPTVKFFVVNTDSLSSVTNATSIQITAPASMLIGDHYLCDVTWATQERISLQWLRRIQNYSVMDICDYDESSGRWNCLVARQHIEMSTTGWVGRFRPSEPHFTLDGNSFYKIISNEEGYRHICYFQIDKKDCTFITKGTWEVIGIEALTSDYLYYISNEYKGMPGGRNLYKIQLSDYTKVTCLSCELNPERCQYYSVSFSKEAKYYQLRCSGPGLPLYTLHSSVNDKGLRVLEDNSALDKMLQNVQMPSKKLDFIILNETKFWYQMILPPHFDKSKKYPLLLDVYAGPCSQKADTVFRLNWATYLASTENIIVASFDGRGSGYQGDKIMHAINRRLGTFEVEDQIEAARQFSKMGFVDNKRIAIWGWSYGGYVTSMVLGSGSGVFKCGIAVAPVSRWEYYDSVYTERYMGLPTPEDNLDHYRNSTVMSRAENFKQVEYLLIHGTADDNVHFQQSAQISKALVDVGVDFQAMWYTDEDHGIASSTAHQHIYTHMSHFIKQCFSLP

Row | Sequence | time to inactivation by DPP-IV [1] [min] | blood glucose reduction overall, through 8 hours (db/db mice; 1 and 3 mg/kg, FIG. 17) | resistance to proteolytic inactivation by DPP-IV [1] | blood glucose after 1 hour (db/db mice; fasted, GLP-1 SgG 1 and 3 mg/kg, GLP-1 peptide 0.8 mg/kg) | blood glucose at 4 and 8 hours post treatment (db/db mice; GLP-1 SgG 1 and 3 mg/kg, GLP-1 peptide 0.8 mg/kg) | blood glucose at 4 and 8 hours post treatment (db/db mice; GLP-1 SgG 1 and 3 mg/kg, GLP-1 peptide 0.8 mg/kg, listed as GLP-1 peptide control)
1 | HAEGTFTSDVSSYLEGQAAKEFIAWLVKGRG [GLP-1] | ≤ 2 | acutely reduces blood glucose through 8 hours |  |  |  | 
2 | HSEGTFTSDVSSYLEGQAAKEFIAWLVKGRG [GLP-1 peptide, GLP-1 receptor agonist with serine for alanine substitution at position 8] |  |  | markedly resistant | considerable blood glucose reduction | started to approach levels of control Surrobody | unable to maintain the same degree of blood glucose levels
